Experimental data from patent publication US5354767A, “Renin inhibiting polyhydroxy-monoamides” (Bio-Mega, Inc., priority 1991, dated 1994).

molecular target: T1, human renin (Homo sapiens, UniProt P00797); test: Plasma renin assay (angiotensin I generated in human plasma pool, RIA); format: biochemical; details: human plasma pool as source of renin and angiotensinogen; pH 6.0; 2 h at 37°; 1% dimethylsulfoxide
T1 construct: A human plasma pool is used as the source of both the substrate (angiotensinogen) and the enzyme (renin); from tissue; host or cells: human plasma pool
T1 sequence (P00797 67-406): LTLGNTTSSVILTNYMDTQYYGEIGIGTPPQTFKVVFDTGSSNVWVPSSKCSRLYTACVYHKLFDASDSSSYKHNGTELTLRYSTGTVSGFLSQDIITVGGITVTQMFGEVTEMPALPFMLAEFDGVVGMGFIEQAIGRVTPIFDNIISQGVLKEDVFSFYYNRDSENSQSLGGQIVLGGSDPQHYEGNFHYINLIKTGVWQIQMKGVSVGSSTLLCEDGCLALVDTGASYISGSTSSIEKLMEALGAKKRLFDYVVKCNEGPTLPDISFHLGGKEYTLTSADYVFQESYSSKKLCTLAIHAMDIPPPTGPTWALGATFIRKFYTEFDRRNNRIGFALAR
Procedure: The assay is performed as follows: The test compound (i.e. the inhibitor) is dissolved in dimethylsulfoxide(1mM stock solution) and diluted with an aqueous buffer solution of 270 mM 2-(N-morpholino)ethanesulfonic acid and 1% human serum albumin (pH 5.85, also containing dimercaprol and 8-hydroxyquinoline sulfate in accordance with the instructions of the RIA kit noted below) to give an assay mixture in which the final dimethylsulfoxide content is 1% (v/v).
A human plasma pool is used as the source of both the substrate (angiotensinogen) and the enzyme (renin). The reaction is initiated by the addition of 50 μL of human plasma pool to 50 μL of various concentrations of inhibitor in the 1% dimethylsulfoxide assay buffer. The plasma renin activity is measured by the amount of angiotensin I generated at pH 6.0 following a 2 h incubation at 37°.
Quantitation of angiotensin I is performed by radioinununoassay (RIA kit from New England Nuclear-Dupont, Mississauga, ON, Canada). The enzymatic activity of renin is expressed in ng of angiotensin I generated/mL/2 h. The extent of inhibition of the reaction is determined from the amount of angiotensin I generated in reference to a control prepared without inhibitor. Nonlinear regression analysis is used to calculate the IC50 values, i.e. the molar concentration of the test compound required to cause a 50% inhibition of the enzyme activity.
The following table exemplifies results obtained for compounds of formula 1.

| IC50 [nM] | Structure (SMILES) |
| --- | --- |
| 175 | CC(C)C[C@H](O)[C@H](O)[C@H](CC1CCCCC1)NC(=O)[C@H](CC1CC1)[C@@H](O)C[C@@H](O)Cc1ccccc1 [Title compound of example 13] |
| 48 | CC(C)C[C@H](O)[C@H](O)[C@H](CC1CCCCC1)NC(=O)[C@H](CC1CC1)C[C@@H](O)[C@@H](O)Cc1ccccc1 [Title compound of example 5, (2R, 4R, 5S)-N-[1(S)-(Cyclohexylmethyl)-2(R), 3(S)-dihydroxy-5-methylhexyl]-2-(cyclopropylmethyl)-4,5-dihydroxy-6-phenylhexanamide] |
| 260 | CC(C)C[C@H](O)[C@H](O)[C@H](CC1CCCCC1)NC(=O)[C@H](CC1CC1)[C@H](O)C[C@H](O)Cc1ccccc1 [Title compound of example 11, (2R,3R,5R)-N-[1(S)-(Cyclohexylmethyl)-2(R),3(S)-dihydroxy-5-methylhexyl]-2-(cyclopropylmethyl)-3,5-dihydroxy-6-phenylhexanamide] |
| 38 | CC(C)C[C@H](O)[C@H](O)[C@H](CC1CCCCC1)NC(=O)[C@H](CC1CC1)C[C@@H](O)[C@H](O)Cc1ccccc1 [Corresponding (2R,4R,5R)-isomer of title compound of example 2] |
| 21 | CC(C)C[C@H](O)[C@H](O)[C@H](CC1CCCCC1)NC(=O)[C@H](CC1CC1)[C@@H](O)C[C@H](O)Cc1ccccc1 [Title compound of example 10, (2R,3S,5R)-N-[1(S)-(Cyclohexylmethyl)-2(R), 3(S)-dihydroxy-5-methylhexyl]-2-(cyclopropylmethyl)-3,5-dihydroxy-6-phenylhexanamide] |
| 22 | CC(C)C[C@H](O)[C@H](O)[C@H](CC1CCCCC1)NC(=O)[C@H](CC1CC1)C[C@H](O)[C@@H](O)Cc1ccccc1 [Title compound of example 2, (2R, 4S, 5S)-N-[1(S)-(Cyclohexylmethyl)-2(R), 3(S)-dihydroxy-5-methylhexyl]-2-(cyclopropylmethyl)-4,5-dihydroxy-6-phenylhexanamide] |
| 110 | CC(C)C[C@H](O)[C@H](O)[C@H](CC1CCCCC1)NC(=O)[C@H](CC1CC1)C[C@H](O)[C@H](O)Cc1ccccc1 [Title compound of example 4, (2R, 4S , 5R)-N-[1(S)-(Cyclohexylmethyl)-2(R), 3(S)-dihydroxy-5methylhexyl]-2-(cyclopropylmethyl)-4,5-dihydroxy-6-phenylhexanamide] |
| 1000 | CC(C)C[C@H](O)[C@H](O)[C@H](CC1CCCCC1)NC(=O)[C@H](CC1CC1)[C@H](O)C[C@@H](O)Cc1ccccc1 [Title compound of example 12, (2R, 3R, 5S)-N-[1(S)-(Cyclohexylmethyl)-2(R), 3(S)-dihydroxy-5-methylhexyl]-2-(cyclopropylmethyl)-3,5-dihydroxy-6-phenylhexanamide] |

same assay, conditions: values in parentheses in the list of other examples; assay not restated there

| IC50 [nM] | Structure (SMILES) |
| --- | --- |
| 220 | Cc1nc(C[C@H](C[C@H](O)[C@@H](O)Cc2ccccc2)C(=O)N[C@@H](CC2CCCCC2)[C@@H](O)[C@@H](O)CC(C)C)cs1 |
| 485 | CC(C)C[C@H](O)[C@H](O)[C@H](CC1CCCCC1)NC(=O)[C@H](Cc1cccs1)C[C@H](O)[C@@H](O)Cc1ccccc1 |
| 173 | CC(C)C[C@H](O)[C@H](O)[C@H](CC1CCCCC1)NC(=O)[C@H](Cc1cnc[nH]1)C[C@@H](O)[C@H](O)Cc1ccccc1 |
